Patent US4122184A, “Benzimidazole insecticides” (priority 1977, dated 1978)
Where “and” joins values, the source holds several entries; their conditions need not be identical. Equal entries are not always repeated.

Key:
Bean Leaf Beetle [1] = experiment: Field trial, stomach poison test; type: in vivo
Outline: (§1)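 Treated foliage (dipped, or sprayed at 10 psi, then dried) is offered to counted insects in dishes. Scoring of mortality uses a 0–9 scale at three time points up to 72 h.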

Oriental Cockroach = experiment: Oriental Roach Test; type: in vivo, Blatta orientalis (Orthoptera); settings: 24 h
Protocol: A rearing pan of late instar (3-4 months old) roaches is placed in a cold room for about 1 hour. Ten nymphs are taken from the pan and placed in each cage and the caged insects are kept at 70°-80° F. for 1 hour. The test cages are then sprayed in the manner indicated above in the milkweed bug test using 5 ml. of a formulation containing a specified amount of the insecticide. The test cages are held for 72 hours during which time the cockroaches are neither fed nor watered. Controls consist of 2 unsprayed cages, two cages sprayed with the formulation alone and 2 cages with a formulation containing 1000 ppm of heptachlor. Mortality counts are made 24 hours after spraying by shaking the cages lightly. All cockroaches remaining in the bottom are counted as dead.

[2] = tested on: Striped Cucumber Beetle Adults; experiment: Field trial, stomach poison test; type: in vivo; design: key: mortality rating on a 0 to 9 scale
Outline: as §1

Bean Leaf Beetle [3] = experiment: Field trial, contact poison test; type: in vivo
Outline: (§2)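 Infested host plants were kept in water-filled bottles with cellucotton around the stem and sprayed with different compound concentrations by atomizer at 10 psi from arm's length. Mortality was read at 24, 48 and 72 h on a 0–9 scale (0 = 0-10%, 9 = 91-100% mortality), averaged per concentration.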

[4] = tested on: Red-Legged Grasshopper Adults; experiment: Field trial, contact poison test; type: in vivo
Outline: as §2

Squash Bug Adults = experiment: Field trial, contact poison test; type: in vivo; design: key: 0-9 rating: 0 = 0-10% mortality, 9 = 91-100% mortality
Outline: as §2

Mexican Bean Beetle = Mexican Bean Beetle Test; type: in vivo, Epilachna varivestis (Coleoptera); settings: 48 h
Protocol: Cuttings of four six-day old Bountiful snap bean plants containing two leaves with approximately 5 square inches of leaf surface, are placed in water. The leaves are sprayed to wetting with about 5-10 ml. of a formulation containing a pre-determined level of the test compound. Half of the formulation is sprayed on the top surface and half on the bottom surface of the leaf using a DeVilbiss atomizer at 10 psi held at a distance of about 18 inches from the leaf. After the leaves have dried, they are cut from the stem and placed separately in petri dishes. Ten third instar, nonmolting Mexican bean beetle larvae grown on Bountiful snap beans are placed on each leaf. Controls consist of two leaves sprayed with 5 ml. of a 500 ppm malathion formulation (reference standard), two leaves sprayed with the formulation without the active ingredient and two leaves are held as untreated controls. After 48 hours, a mortality count is made and the amount of feeding noted. Moribund larvae are counted as dead.

Boll Weevil [5] = experiment: Boll Weevil Test; type: in vivo, Anthonomus grandis (Coleoptera); settings: 48 h
Description: The procedure is identical to that employed for the Mexican bean beetle and the Southern armyworm, except that 10 adult boll weevils are placed on cotton leaves that have been dipped into formulations of the test compounds. The same rating scale is used.

Milkweed Bug = Milkweed Bug Test; type: in vivo, Oncopeltis fasciatus (Hemiptera); settings: 48 h
Protocol: Ten adult milkweed bugs are chilled and placed in a test cage. The cages containing the bugs are sprayed with 5 ml. of a test formulation containing a pre-determined amount of the insecticide, using a DeVilbiss atomizer at 10 psi held 33 inches from the top of the cage. After the cage has been allowed to dry, the bugs are fed and watered for 48 hours. A formulation containing 500 ppm of malathion is used as a reference standard and two unsprayed cages are kept as controls. Mortality counts are made 48 hours after spraying. Moribund adults are considered dead. The same rating scale is employed as before.

[6] = tested on: Southern Corn Rootworm Adults; experiment: Field trial, stomach poison test; type: in vivo; design: key: mortality rating on a 0 to 9 scale
Outline: as §1

[7] = tested on: Southern Corn Rootworm Adults; experiment: Field trial, contact poison test; type: in vivo
Outline: as §2

Yellow Mealworm Larvae = experiment: Field trial, topical application; type: in vivo; design: key: 0 = 0-10% mortality, 9 = 91-100% mortality (0-9 scale)
Outline: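 1 μL benzimidazole solution of set microgram content applied topically to larvae or adults. Mortality read at 24, 48 and 72 h where applicable, rated 0-9 (0 = 0-10%, 9 = 91-100%); values are average mortality per concentration.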

Boll Weevil [8] = experiment: Field trial (first summer), topical; type: in vivo, Anthonomus grandis; settings: .078125 μg/μl
Outline: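 Field trial from the first summer in which 1 µl of test solution holding a set number of micrograms of benzimidazole was applied topically to larvae or adult insects. Mortality at a given route and concentration was scored on a 0–9 scale.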

For CC(C)OC(=O)n1c(C(F)(F)F)nc2c([N+](=O)[O-])cc(C(F)(F)F)cc21 [I, isopropyl 2,6-bis(trifluoromethyl)-4-nitro-1-benzimidazolecarboxylate], the average mortality rating (Bean Leaf Beetle [1]; 10 ppm) was 0 (0-10 percent), the average mortality rating (Bean Leaf Beetle [1]; 25 ppm) was 1 and the average mortality rating (Bean Leaf Beetle [1]; 50 ppm) was 3. The mortality rating (Oriental Cockroach; 100 ppm) was 1.5, the mortality rating (Oriental Cockroach; 250 ppm) was 5.5 and the mortality rating (Oriental Cockroach; 500 ppm) was 6.5. It also gave an average mortality rating ([2]; 10 ppm) of 2, an average mortality rating ([2]; 25 ppm) of 3 and an average mortality rating ([2]; 50 ppm) of 6. The average mortality rating ([2]; 100 ppm) was 9 (91-100 percent mortality), the average mortality rating (Bean Leaf Beetle [3]; 25 ppm) was 0 (0-10 percent) and the average mortality rating (Bean Leaf Beetle [3]; 50 ppm) was 0 (0-10 percent). It also gave an average mortality rating (Bean Leaf Beetle [3]; 100 ppm) of 4, an average mortality rating ([4]; 10 ppm) of 2 and an average mortality rating ([4]; 25 ppm) of 3. The average mortality rating ([4]; 50 ppm) was 5, the average mortality rating (Squash Bug Adults; 125 ppm) was 3 and the average mortality rating (Squash Bug Adults; 250 ppm) was 1. For the same compound, the average mortality rating (Squash Bug Adults; 500 ppm) was 0 (0-10 percent), the average mortality rating (Squash Bug Adults; 750 ppm) was 0 (0-10 percent) and the mortality rating (Mexican Bean Beetle; 25 ppm) was 6.5. The mortality rating (Boll Weevil [5]; 25 ppm) was 8.5, the mortality rating (Boll Weevil [5]; 50 ppm) was 8.5 and the mortality rating (Boll Weevil [5]; 100 ppm) was 7.5.

Compound O=[N+]([O-])c1cc(C(F)(F)F)cc2[nH]c(C(F)(F)Cl)nc12 [L, 2-chlorodifluoromethyl-4-nitro-6-trifluoromethylbenzimidazole] has a mortality rating (Milkweed Bug; 100 ppm) of 4.5, an average mortality rating (Bean Leaf Beetle [1]; 10 ppm) of 1 and an average mortality rating (Bean Leaf Beetle [1]; 25 ppm) of 1. For the same compound, the average mortality rating (Bean Leaf Beetle [1]; 50 ppm) was 0 (0-10 percent), the mortality rating (Oriental Cockroach; 500 ppm) was 5.5 and the average mortality rating ([6]; 25 ppm) was 1. It also gave an average mortality rating ([6]; 50 ppm) of 4, an average mortality rating ([6]; 100 ppm) of 6 and an average mortality rating ([7]; 25 ppm) of 5. For the same compound, the average mortality rating ([7]; 50 ppm) was 8, the average mortality rating ([7]; 100 ppm) was 9 (91-100 percent mortality) and the average mortality rating (Bean Leaf Beetle [3]; 25 ppm) was 0 (0-10 percent). For the same compound, the average mortality rating (Bean Leaf Beetle [3]; 50 ppm) was 4, the average mortality rating (Bean Leaf Beetle [3]; 100 ppm) was 6 and the average mortality rating ([4]; 25 ppm) was 7. For the same compound, the average mortality rating ([4]; 50 ppm) was 9 (91-100 percent mortality), the average mortality rating (Squash Bug Adults; 125 ppm) was 0 (0-10 percent) and the average mortality rating (Squash Bug Adults; 250 ppm) was 6. For the same compound, the average mortality rating (Squash Bug Adults; 500 ppm) was 6, the average mortality rating (Squash Bug Adults; 750 ppm) was 9 (91-100 percent mortality) and the mortality rating (Mexican Bean Beetle; 50 ppm) was 8.5. For the same compound, the average mortality rating (Yellow Mealworm Larvae; 0.03 μg/μl) was 5, the average mortality rating (Yellow Mealworm Larvae; 0.07 μg/μl) was 5 and the average mortality rating (Yellow Mealworm Larvae; 0.15 μg/μl) was 9 (91-100 percent mortality). The mortality rating (Boll Weevil [5]; 10 ppm) was “.5” and the mortality rating (Boll Weevil [5]; 25 ppm) was 1.5.

With “mixture of N,N-dimethyl-4-nitro-2,6-bis(trifluoromethyl)thio-1-benzimidazolecarboxamide and N,N-dimethyl-7-nitro-2,5-bis(trifluoromethyl)thio-1-benzimidazolecarboxamide [P]” the mortality rating (Milkweed Bug; 10 ppm) was 0 (0-10), the mortality rating (Milkweed Bug; 25 ppm) was 0 (0-10) and the mortality rating (Milkweed Bug; 50 ppm) was 3.5. For the same compound, the mortality rating (Milkweed Bug; 100 ppm) was 4.5, the mortality rating (Milkweed Bug; 250 ppm) was 4 (41-50) and the mortality rating (Milkweed Bug; 500 ppm) was 4 (41-50). The mortality rating (Milkweed Bug; 1000 ppm) was 2 (21-30), the insect mortality rating (Boll Weevil [8]) was 9 (91-100 percent mortality) and the mortality rating (Oriental Cockroach; 50 ppm) was 0 (0-10). The mortality rating (Oriental Cockroach; 100 ppm) was 2.5, the mortality rating (Oriental Cockroach; 250 ppm) was 5.5 and the mortality rating (Oriental Cockroach; 500 ppm) was 9 (91-100). For the same compound, the mortality rating (Oriental Cockroach; 1000 ppm) was 8 (81-90), the average mortality rating ([2]; 10 ppm) was 5 and the average mortality rating ([2]; 25 ppm) was 4. For the same compound, the average mortality rating ([2]; 50 ppm) was 5, the average mortality rating ([2]; 100 ppm) was 9 (91-100 percent mortality) and the mortality rating (Mexican Bean Beetle; 10 ppm) was 0 (0-10). For the same compound, the mortality rating (Mexican Bean Beetle; 25 ppm) was 0 (0-10), the mortality rating (Mexican Bean Beetle; 50 ppm) was 4.5 and the mortality rating (Mexican Bean Beetle; 100 ppm) was 7 (71-80). For the same compound, the mortality rating (Mexican Bean Beetle; 250 ppm) was 7.5, the mortality rating (Mexican Bean Beetle; 500 ppm) was 8.5 and the mortality rating (Mexican Bean Beetle; 1000 ppm) was 9 (91-100). The mortality rating (Boll Weevil [5]; 10 ppm) was 1.5, the mortality rating (Boll Weevil [5]; 25 ppm) was 5 (51-60) and the mortality rating (Boll Weevil [5]; 50 ppm) was 8 (81-90). For the same compound, the mortality rating (Boll Weevil [5]; 100 ppm) was 9 (91-100), the mortality rating (Boll Weevil [5]; 250 ppm) was 9 (91-100) and the mortality rating (Boll Weevil [5]; 500 ppm) was 9 (91-100). The mortality rating (Boll Weevil [5]; 1000 ppm) was 9 (91-100).

“mixture of methyl 2,6-bis(trifluoromethyl)-4-nitro-1-benzimidazolecarboxylate and methyl 2,5-bis(trifluoromethyl)-7-nitro-1-benzimidazolecarboxylate” was tested, and the mortality rating (Milkweed Bug; 25 ppm) was 5 (51-60), the mortality rating (Milkweed Bug; 100 ppm) was 8 (81-90) and the mortality rating (Milkweed Bug; 250 ppm) was 9 (91-100). The mortality rating (Milkweed Bug; 500 ppm) was 9 (91-100), the mortality rating (Milkweed Bug; 1000 ppm) was 9 (91-100) and the insect mortality rating (Boll Weevil [8]) was 9 (91-100 percent mortality). The average mortality rating (Bean Leaf Beetle [1]; 10 ppm) was 1, the average mortality rating (Bean Leaf Beetle [1]; 25 ppm) was 0 (0-10 percent) and the average mortality rating (Bean Leaf Beetle [1]; 50 ppm) was 1. For the same compound, the mortality rating (Oriental Cockroach; 50 ppm) was 0 (0-10), the mortality rating (Oriental Cockroach; 100 ppm) was 0 (0-10) and the mortality rating (Oriental Cockroach; 250 ppm) was 5.5. The mortality rating (Oriental Cockroach; 500 ppm) was 9 (91-100), the mortality rating (Oriental Cockroach; 1000 ppm) was 9 (91-100) and the average mortality rating ([2]; 10 ppm) was 2. For the same compound, the average mortality rating ([2]; 25 ppm) was 0 (0-10 percent), the average mortality rating ([2]; 50 ppm) was 5 and the average mortality rating ([2]; 100 ppm) was 9 (91-100 percent mortality). The average mortality rating ([6]; 25 ppm) was 3 and 4, the average mortality rating ([6]; 50 ppm) was 4 and the average mortality rating ([6]; 100 ppm) was 6. For the same compound, the average mortality rating ([7]; 25 ppm) was 5 and 3, the average mortality rating ([7]; 100 ppm) was 9 (91-100 percent mortality) and the average mortality rating (Bean Leaf Beetle [3]; 25 ppm) was 0 (0-10 percent). For the same compound, the average mortality rating (Bean Leaf Beetle [3]; 50 ppm) was 0 (0-10 percent), the average mortality rating (Bean Leaf Beetle [3]; 100 ppm) was 1 and the average mortality rating (Squash Bug Adults; 125 ppm) was 0 (0-10 percent). The average mortality rating (Squash Bug Adults; 250 ppm) was 0 (0-10 percent), the average mortality rating (Squash Bug Adults; 500 ppm) was 2 and the average mortality rating (Squash Bug Adults; 750 ppm) was 3. The mortality rating (Mexican Bean Beetle; 5 ppm) was 0 (0-10), the mortality rating (Mexican Bean Beetle; 10 ppm) was 9 (91-100) and the mortality rating (Mexican Bean Beetle; 25 ppm) was 9 (91-100). The mortality rating (Mexican Bean Beetle; 50 ppm) was 9 (91-100), the mortality rating (Mexican Bean Beetle; 100 ppm) was 9 (91-100) and the mortality rating (Mexican Bean Beetle; 250 ppm) was 9 (91-100). For the same compound, the mortality rating (Mexican Bean Beetle; 500 ppm) was 9 (91-100), the mortality rating (Mexican Bean Beetle; 1000 ppm) was 9 (91-100) and the average mortality rating (Yellow Mealworm Larvae; 0.03 μg/μl) was 2. The average mortality rating (Yellow Mealworm Larvae; 0.07 μg/μl) was 3, the average mortality rating (Yellow Mealworm Larvae; 0.15 μg/μl) was 6 and the mortality rating (Boll Weevil [5]; 5 ppm) was 0 (0-10). For the same compound, the mortality rating (Boll Weevil [5]; 10 ppm) was 5.5, the mortality rating (Boll Weevil [5]; 25 ppm) was 8.5 and the mortality rating (Boll Weevil [5]; 50 ppm) was 9 (91-100). The mortality rating (Boll Weevil [5]; 100 ppm) was 9 (91-100), the mortality rating (Boll Weevil [5]; 250 ppm) was 9 (91-100) and the mortality rating (Boll Weevil [5]; 500 ppm) was 9 (91-100). For the same compound, the mortality rating (Boll Weevil [5]; 1000 ppm) was 9 (91-100).
